For 4 molecules, Kd and stoichiometry N results are on record in paper PMC8458285, “The Acinetobacter baumannii disinfectant resistance protein, AmvA, is a spermidine and spermine efflux pump” (Communications Biology, 2021).

What is called Kd is a measure of binding affinity in units of concentration. One may read the stoichiometry N as the number of molecules, sites or subunits per partner or assembly.

Assay [1] concerns the target T1, AmvR (Acinetobacter baumannii, UniProt A0A0D5YGI2).
T1 construct: gene ABUW_1678; AmvR (amvR amplified from A. baumannii ATCC17978 genomic DNA) carrying a C-terminal hexahistidine tag; dimer in solution
Briefly: nanoDSF isothermal analysis (Kd at […] °C); DSF shift +[…] °C. In kind it is binding.

Assay [2] has as its target AmvR (Acinetobacter baumannii ATCC17978). Briefly: SEC; analytical SEC on Superdex 200 10/300 GL; elution volume compared with MW standards (HMW and LMW calibration sets). Background: SEC sorts molecules by how far they enter the pores of the column.
In assay [3] the target is T1, AmvR. Briefly: nanoDSF isothermal analysis (Kd at […] °C); weak, DSF shift only +[…] °C. In kind it is binding. For orientation: Differential scanning fluorimetry follows unfolding on heating by fluorescence.

Consider `NCCCNCCCCNCCCN` [spermine], for which, at AmvR [1], the Kd stood at 5.4 µM.

On to AmvR (natural protein), for which the stoichiometry N in assay [2] worked out at 2. As for `NCCCCN` [putrescine], the Kd on AmvR [3] was determined as 260 µM. Turning to `NCCCCNCCCN` [spermidine], the Kd on AmvR [1] stood at 9.5 µM.
